# Results reported in ChEMBL document CHEMBL1201862, “PubChem BioAssay data set” (2004).
#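 Values below derive from 48-hour exposures of cells grown in 96-well plates, with endpoints linearly interpolated between the two concentrations bracketing the appropriate inhibition level. GI50: concentration for 50% inhibition of growth.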 Active and inactive are the calls of the source. Rule as the data show it: active = GI50 up to about 1.1 µM and inactive = higher.
# Tests used:
# Experiment in all cases: NCI-60 cell line screen, 48 h
# OVCAR-8 = system: OVCAR-8
# HOP-92 = system: HOP-92
# DU-145 = system: DU-145
# NCI-H226 = system: NCI-H226
# TK-10 = system: TK-10
# SN12C = system: SN12C
# MDA-N = system: MDA-N
# SK-MEL-5 = system: SK-MEL-5
# SK-MEL-2 = system: SK-MEL-2
# BT-549 = system: BT-549
# PC-3 = system: PC-3
# SR = system: SR
# RXF 393 = system: RXF 393
# NCI-H460 = system: NCI-H460
# HCC 2998 = system: HCC 2998
# OVCAR-4 = system: OVCAR-4
# MDA-MB-435 = system: MDA-MB-435
# NCI-H23 = system: NCI-H23
# UACC-62 = system: UACC-62
# OVCAR-3 = system: OVCAR-3
# IGROV-1 = system: IGROV-1
# UACC-257 = system: UACC-257
# SNB-75 = system: SNB-75
# HCT-15 = system: HCT-15
# Hs-578T = system: Hs-578T
# U-251 = system: U-251
# M14 = system: M14
# UO-31 = system: UO-31
# MCF7 = system: MCF7
# MOLT-4 = system: MOLT-4
# A549 = system: A549
# EKVX = system: EKVX
# HL-60 = system: HL-60
# T47D = system: T47D
# KM12 = system: KM12
# OVCAR-5 = system: OVCAR-5
# HCT-116 = system: HCT-116
# SNB-19 = system: SNB-19
# NCI-H522 = system: NCI-H522
# COLO 205 = system: COLO 205
# CAKI-1 = system: CAKI-1
# SK-OV-3 = system: SK-OV-3
# NCI/ADR-RES = system: NCI/ADR-RES
# SF-268 = system: SF-268
# MDA-MB-231 = system: MDA-MB-231
# SF-539 = system: SF-539
# Malme-3M = system: Malme-3M
# SF-295 = system: SF-295
# SK-MEL-28 = system: SK-MEL-28
# LOX IMVI = system: LOX IMVI
# RPMI-8226 = system: RPMI-8226
# SW-620 = system: SW-620
# 786-0 = system: 786-0
# ACHN = system: ACHN
# HOP-62 = system: HOP-62
# HT-29 = system: HT-29
# K562 = system: K562
# CCRF-CEM = system: CCRF-CEM
smiles,measurement,setting,value
O=C(Nc1ccc2cc3ccccc3cc2c1)c1cc2c(cc1Cl)Sc1nccn1S2(=O)=O,GI50,OVCAR-8,26.4 µM (inactive)
same,GI50,HOP-92,42 µM (inactive)
same,GI50,DU-145,20.6 µM (inactive)
same,GI50,NCI-H226,82.8 µM (inactive)
same,GI50,TK-10,16 µM (inactive)
same,GI50,SN12C,60.3 µM (inactive)
same,GI50,MDA-N,44.4 µM (inactive)
same,GI50,SK-MEL-5,7.93 µM (inactive)
same,GI50,SK-MEL-2,85.9 µM (inactive)
same,GI50,BT-549,32.5 µM (inactive)
same,GI50,PC-3,6.47 µM (inactive)
same,GI50,SR,35.2 µM (inactive)
same,GI50,RXF 393,45.6 µM (inactive)
same,GI50,NCI-H460,28.7 µM (inactive)
same,GI50,HCC 2998,6.84 µM (inactive)
same,GI50,OVCAR-4,10.3 µM (inactive)
same,GI50,MDA-MB-435,28.4 µM (inactive)
same,GI50,NCI-H23,46.5 µM (inactive)
same,GI50,UACC-62,64.9 µM (inactive)
same,GI50,OVCAR-3,> 100 µM (inactive)
same,GI50,IGROV-1,15.9 µM (inactive)
same,GI50,UACC-257,58.3 µM (inactive)
same,GI50,SNB-75,13.3 µM (inactive)
same,GI50,HCT-15,20.7 µM
same,GI50,Hs-578T,> 100 µM (inactive)
same,GI50,U-251,5.48 µM (inactive)
same,GI50,M14,42.7 µM (inactive)
same,GI50,UO-31,68.5 µM (inactive)
same,GI50,MCF7,> 100 µM (inactive)
same,GI50,MOLT-4,33.4 µM (inactive)
same,GI50,A549,13.6 µM (inactive)
same,GI50,EKVX,35.6 µM (inactive)
same,GI50,HL-60,17.7 µM (inactive)
same,GI50,T47D,25.2 µM (inactive)
same,GI50,KM12,33.7 µM (inactive)
same,GI50,OVCAR-5,21.7 µM (inactive)
same,GI50,HCT-116,3.85 µM (inactive)
same,GI50,SNB-19,25.1 µM (inactive)
same,GI50,NCI-H522,33.7 µM (inactive)
same,GI50,COLO 205,87.3 µM (inactive)
same,GI50,CAKI-1,> 100 µM (inactive)
same,GI50,SK-OV-3,> 100 µM (inactive)
same,GI50,NCI/ADR-RES,> 100 µM (inactive)
same,GI50,SF-268,15.3 µM (inactive)
same,GI50,MDA-MB-231,8.97 µM (inactive)
same,GI50,SF-539,7.8 µM (inactive)
same,GI50,Malme-3M,19.5 µM (inactive)
same,GI50,SF-295,13.4 µM (inactive)
same,GI50,SK-MEL-28,19.1 µM (inactive)
same,GI50,LOX IMVI,16.8 µM (inactive)
same,GI50,RPMI-8226,> 100 µM (inactive)
same,GI50,SW-620,13.9 µM (inactive)
same,GI50,786-0,4.73 µM (inactive)
same,GI50,ACHN,67.1 µM (inactive)
same,GI50,HOP-62,59.6 µM (inactive)
same,GI50,HT-29,18.9 µM (inactive)
same,GI50,K562,10.8 µM (inactive)
COc1ccc(Cn2c(=O)c(OS(=O)(=O)C(F)(F)F)c(C)c3cc4ccccc4cc32)cc1,GI50,OVCAR-8,> 100 µM (inactive)
same,GI50,DU-145,> 100 µM (inactive)
same,GI50,NCI-H226,> 100 µM (inactive)
same,GI50,TK-10,> 100 µM (inactive)
same,GI50,SN12C,> 100 µM (inactive)
same,GI50,MDA-N,> 100 µM (inactive)
same,GI50,SK-MEL-5,> 100 µM (inactive)
same,GI50,SK-MEL-2,> 100 µM (inactive)
same,GI50,BT-549,> 100 µM (inactive)
same,GI50,PC-3,> 100 µM (inactive)
same,GI50,SR,> 100 µM (inactive)
same,GI50,RXF 393,> 100 µM (inactive)
same,GI50,NCI-H460,> 100 µM (inactive)
same,GI50,HCC 2998,> 100 µM (inactive)
same,GI50,OVCAR-4,88.7 µM (inactive)
same,GI50,MDA-MB-435,> 100 µM (inactive)
same,GI50,NCI-H23,> 100 µM (inactive)
same,GI50,UACC-62,> 100 µM (inactive)
same,GI50,OVCAR-3,> 100 µM (inactive)
same,GI50,IGROV-1,> 100 µM (inactive)
same,GI50,UACC-257,36 µM (inactive)
same,GI50,SNB-75,> 100 µM (inactive)
same,GI50,HCT-15,> 100 µM
same,GI50,Hs-578T,> 100 µM (inactive)
same,GI50,U-251,> 100 µM (inactive)
same,GI50,M14,> 100 µM (inactive)
same,GI50,UO-31,> 100 µM (inactive)
same,GI50,MCF7,> 100 µM (inactive)
same,GI50,MOLT-4,> 100 µM (inactive)
same,GI50,A549,> 100 µM (inactive)
same,GI50,EKVX,> 100 µM (inactive)
same,GI50,CCRF-CEM,> 100 µM (inactive)
same,GI50,HL-60,> 100 µM (inactive)
same,GI50,T47D,> 100 µM (inactive)
same,GI50,KM12,> 100 µM (inactive)
same,GI50,OVCAR-5,> 100 µM (inactive)
same,GI50,HCT-116,> 100 µM (inactive)
same,GI50,SNB-19,> 100 µM (inactive)
same,GI50,NCI-H522,> 100 µM (inactive)
same,GI50,COLO 205,> 100 µM (inactive)
same,GI50,CAKI-1,> 100 µM (inactive)
same,GI50,SK-OV-3,> 100 µM (inactive)
same,GI50,NCI/ADR-RES,> 100 µM (inactive)
same,GI50,SF-268,> 100 µM (inactive)
same,GI50,MDA-MB-231,> 100 µM (inactive)
same,GI50,SF-539,> 100 µM (inactive)
same,GI50,Malme-3M,86.1 µM (inactive)
same,GI50,SF-295,> 100 µM (inactive)
same,GI50,SK-MEL-28,> 100 µM (inactive)
same,GI50,LOX IMVI,> 100 µM (inactive)
same,GI50,SW-620,> 100 µM (inactive)
same,GI50,786-0,> 100 µM (inactive)
same,GI50,ACHN,> 100 µM (inactive)
same,GI50,HOP-62,> 100 µM (inactive)
same,GI50,HT-29,> 100 µM (inactive)
same,GI50,K562,> 100 µM (inactive)
